Measurements taken from patent US5734052A (Merrell Pharmaceuticals Inc., priority 1995, dated 1998).
Values belong to the compound of their own block, whether it stands above or below them.

Legend:
adenosine A-2 receptors = target: T1, adenosine A-2 receptors (Rattus norvegicus, UniProt P30543); experiment: Affinity for brain adenosine A-2 receptors ([3H]NECA competition, striatal membranes); format: binding; settings: rat brain striatum membranes, 1 μM CHA in tube addition, 25° C., 60 minutes, read-out: A2 Ki
T1 construct: tissue Charles River; host or cells: striatal membranes of young male rats (C-D strain)
Experimental: Young male rats (C-D strain), obtained from Charles River, are killed by decapitation and the brain was removed. Membranes for ligand binding are isolated from rat brain striatum. The tissue is homogenized in 20 vol ice-cold 50 mM Tris-HCl buffer (pH 7.7) using a polytron (setting for 6 to 20 seconds). The homogenate is centrifuged at 50,000×g for 10 minutes at 4° C. The pellet is again homogenized in a polytron in 20 vol of buffer, and centrifuged as before. The pellet is finally resuspended in 40 vol of 50 mM Tris-HCl (pH 7.7) per gram of original wet weight of tissue.
Incubations are carried out at 25° C. for 60 minutes. Each tube is filtered through GF/B glass fiber filters using a vacuum. The filters are rinsed two times with 5 ml of the ice-cold buffer. […] The filters are counted by liquid scintillation spectrometry.
Specific binding of [3H]NECA is measured as the excess over blanks run in the presence of 100 μM 2-chloro-adenosine. Total membrane-bound radioactivity is about 2.5% of that added to the test tubes. […] Specific binding to membranes is about 50% of the total bound.

Adenosine A-1 receptor [1] = target: T2, Adenosine A-1 receptor (Rattus norvegicus, UniProt P25099)
T2 sequence (P25099 1-326): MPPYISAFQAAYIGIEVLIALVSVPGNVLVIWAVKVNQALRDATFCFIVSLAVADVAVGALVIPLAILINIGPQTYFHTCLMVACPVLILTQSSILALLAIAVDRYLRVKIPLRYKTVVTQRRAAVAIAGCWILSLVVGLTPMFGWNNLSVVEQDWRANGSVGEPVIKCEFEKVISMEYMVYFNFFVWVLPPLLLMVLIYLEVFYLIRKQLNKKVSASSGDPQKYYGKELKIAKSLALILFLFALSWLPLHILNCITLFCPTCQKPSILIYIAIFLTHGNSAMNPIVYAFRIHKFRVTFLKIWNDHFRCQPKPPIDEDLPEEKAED

Adenosine A-1 receptor [2] = target: T2, Adenosine A-1 receptor; experiment: Affinity for brain adenosine A-1 receptor binding sites ([3H]cyclohexyladenosine competition); settings: ratio of A2 Ki to A1 Ki
adenosine receptor = settings: in vivo; cited from earlier work
A-1 receptors = settings: in vitro, A-1 vs A-2; cited from earlier work

T1 sequence (P30543 whole entry): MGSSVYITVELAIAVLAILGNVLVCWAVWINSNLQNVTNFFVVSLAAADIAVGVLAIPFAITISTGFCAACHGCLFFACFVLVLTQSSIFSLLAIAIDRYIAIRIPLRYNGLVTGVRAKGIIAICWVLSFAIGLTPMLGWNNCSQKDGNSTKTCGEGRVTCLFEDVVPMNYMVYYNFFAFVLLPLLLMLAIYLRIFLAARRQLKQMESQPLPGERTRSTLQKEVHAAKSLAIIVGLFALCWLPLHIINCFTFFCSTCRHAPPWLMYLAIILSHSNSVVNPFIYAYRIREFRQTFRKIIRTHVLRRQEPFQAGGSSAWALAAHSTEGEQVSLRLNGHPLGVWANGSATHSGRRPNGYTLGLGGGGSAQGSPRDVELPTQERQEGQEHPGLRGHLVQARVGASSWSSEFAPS

Ki (adenosine A-2 receptors): 2.72 µM
SMILES: CCCn1c(=O)c2[nH]c([C@@H]3CCC[C@H]3c3ccccc3)nc2n(CCC)c1=O (relative stereo) [8-(trans-2-Phenylcyclopentyl)-1,3-dipropyl-3,9-dihydropurine-2,6-dione]

Ki (adenosine A-2 receptors): 10.3 µM
SMILES: CCCn1c(=O)c2nc(C3CCc4ccccc4C3)[nH]c2n(CCC)c1=O (stereo not shown) [1,3-Dipropyl-8-(1,2,3,4-tetrahydronaphthalen-2-yl)-3,9-dihydropurine-2,6-dione]

Ki (adenosine A-2 receptors): 1.74 µM
Ki (Adenosine A-1 receptor [1]): 0.0943 µM
A2/A1 (Adenosine A-1 receptor [2]): 18
SMILES: CCCn1c(=O)c2nc(CC(C)c3ccccc3)[nH]c2n(CCC)c1=O (stereo not shown) [8-(2-Phenylpropyl)-1,3-dipropyl-3,9-dihydropurine-2,6-dione]

SMILES: CCCn1c(=O)c2[nH]c(-c3ccc(OCC(=O)NCCN)cc3)nc2n(CCC)c1=O [XAC]
potency in antagonizing effects of adenosine analogs on heart rate vs blood pressure (adenosine receptor): much more potent in antagonizing the effects of adenosine analogs on heart rate than on blood pressure

SMILES: CCCn1c(=O)c2[nH]c(-c3ccc(OCC(=O)O)cc3)nc2n(CCC)c1=O [XCC]
adenosine receptor selectivity (A-1 receptors): adenosine receptor nonselective
